Data from patent US6482949B1, “Colormetric sensor compositions and methods” (priority 1999, dated 2002).

Assays:
[1] = Anion binding constants (Ka) by fluorescence quenching / UV-vis absorbance titration, fluoride; conditions: for Anion binding constant (Ka), F^−: 1 by fluorescence quenching (λex 412 nm), 10 by UV-vis absorbance titration at 341 nm, errors ± 10%, average of 2-4 trials; for affinity constant (Ka) for F^− binding, rounded: in dichloromethane
Text: (§1) The conclusion that 1 binds fluoride anion in dichloromethane solution was further supported by mass spectrometric analyses and titration experiments made using UV-visible absorption and fluorescence emission methods (Tables 1 and 2). The latter studies, which provided Ka values (Tables 1 and 2), were complemented by molar ratio analyses (Job plots) with 1:1 binding stoichiometries observed in all cases.
(§2) Nonetheless, even with these control systems the addition of tetrabutylammonium salts of various anions (F^−, Cl^− and H2PO4^−), gave rise to results that were quite interesting. […] Such effects can be rationalized in terms of the electron withdrawing nature of the two carbonyl groups, which serve to pull the electrons from the pyrrole units and thus act to increase the acidity of the pyrrolic NH protons. As a result, hydrogen bonding interactions with F^− are favored. In the particular case of inorganic phosphate, we speculate that the two carbonyl groups may also be involved in binding, stabilizing the complex via ancillary hydrogen bonding interactions involving the two HOP-phosphate protons.

[2] = Anion binding constants (Ka) by fluorescence quenching / UV-vis absorbance titration, dihydrogen phosphate; conditions: dichloromethane; for Anion binding constant (Ka), H2PO4^−: 1 by fluorescence quenching, 10 by UV-vis absorbance titration at 341 nm, errors ± 10%, average of 2-4 trials
Text: as §1, §2

[3] = Anion binding constants (Ka) by fluorescence quenching / UV-vis absorbance titration, chloride; conditions: dichloromethane; for Anion binding constant (Ka), Cl^−: 1 by fluorescence quenching, 10 by UV-vis absorbance titration at 341 nm, errors ± 10%, average of 2-4 trials
Text: as §1, §2

[4] = Colorimetric assay: visual color change in solution on addition of fluoride anion; conditions: in solution (dichloromethane), naked eye
Text: as §2
Unfortunately, the fluorescence quantum yield of 10 is low.
Using 2,3-dipyrrol-2′yl-5,6dicyanopyrazine (preparation is described in Example 30) as a sensing compound, a vivid yellow-to-red color change in solution observed upon addition of fluoride ion verifies that the quinoxaline backbone is not essential for chemical sensing in this family of compounds. This is consistent with the theory that changes in orbital overlap between the pi systems of conjugated bridging unit and the pyrrole rings account for the sensitivity of the sensing elements to analyte species.
In order to understand more fully the above results, studies were performed to map out the mode of fluoride anion binding. Firstly, it was verified that two pyrrolic nitrogens are required to observe the anion-induced color change. Toward this end, the mono protected 2,3-dipyrrylquinoxaline 12 was prepared by reacting 0.8 equivalents of SEMCl with one equivalent of 2,3-dipyrrylquinoxaline.

Row | Compound | Anion binding constant (Ka), F^− ([1]; dichloromethane) | affinity constant (Ka) for F^− binding, rounded [1] | Anion binding constant (Ka), H2PO4^− [2] [M⁻¹] | Anion binding constant (Ka), Cl^− [3] [M⁻¹] | fluoride anion-induced color change [4] | change in the absorbance or emission spectra on addition of F^− ([1]; dichloromethane, tetrabutylammonium salt) | change in the absorbance or emission spectra on addition of H2PO4^− ([2]; tetrabutylammonium salt) | change in the absorbance or emission spectra on addition of Cl^− ([3]; tetrabutylammonium salt)
1 | c1c[nH]c(-c2nc3ccccc3nc2-c2ccc[nH]2)c1 [compound 1, 2,3-dipyrrylquinoxaline] | 18,200 M^−1 | 20000 M⁻¹ | 60 | 50 | yellow to orange |  |  | 
2 | O=[N+]([O-])c1ccc2nc(-c3ccc[nH]3)c(-c3ccc[nH]3)nc2c1 [compound 7, 6-nitro-2,3-dipyrrylquinoxaline] | 118,000 M^−1 | ~10^5 M^−1 | 80 | 45 | yellow to purple |  |  | 
3 | COc1cc2nc(-c3ccc[nH]3)c(-c3ccc[nH]3)nc2cc1OC [compound 2, 2,3-dipyrrol-2′-yl-6,7-dimethoxyquinoxaline] | 2,300 M^−1 | 2000 M⁻¹ | <50 | <50 | hardly “works” at all |  |  | 
4 | O=[N+]([O-])c1cc2nc(-c3ccc[nH]3)c(-c3ccc[nH]3)nc2cc1[N+](=O)[O-] [compound 3, 2,3-dipyrrol-2′-yl-6,7-dinitroquinoxaline] | 117,000 M^−1 | ~10^5 M^−1 | 55 | 45 |  |  |  | 
5 | C[Si](C)(C)CCOCn1cccc1-c1nc2ccccc2nc1-c1ccc[nH]1 [compound 12] | 2,300 M^−1 |  | <50 | <50 | no color change |  |  | 
6 | c1ccc2nccnc2c1 [compound 11, quinoxaline, reference compound] |  |  |  |  |  | did not induce any significant change in the absorbance or emission spectra | did not induce any significant change in the absorbance or emission spectra | did not induce any significant change in the absorbance or emission spectra
7 | N#Cc1nc(-c2ccc[nH]2)c(-c2ccc[nH]2)nc1C#N [2,3-dipyrrol-2′yl-5,6dicyanopyrazine, 2,3-dipyrrol-2′yl-5,6-dicyanopyrazine] |  |  |  |  | yellow-to-red |  |  | 
